Results: US8618289B2 (Ambit Biosciences Corporation, priority 2008, dated 2013)

How the values were obtained:
[1] = target: RAF kinases (Homo sapiens, UniProt P04049); settings: read-out: RAF1 Kd; RAF1
[2] = target: RAF kinases (Homo sapiens, UniProt P15056); settings: read-out: BRAF WT Kd; BRAF WT
[3] = target: RAF kinases (Homo sapiens, UniProt P15056, V600E); settings: read-out: BRAF V600E Kd; BRAF V600E
[4] = system: MEK1 phosphorylation in the A375 human melanoma cell line; assay: cells; settings: A-375, read-out: pMEK IC50
[5] = system: A375 cells; assay: cells; settings: Homo sapiens, A-375, read-out: A375 Viability EC50

Sequence of RAF kinases (Homo sapiens, UniProt P04049) (P04049 whole entry): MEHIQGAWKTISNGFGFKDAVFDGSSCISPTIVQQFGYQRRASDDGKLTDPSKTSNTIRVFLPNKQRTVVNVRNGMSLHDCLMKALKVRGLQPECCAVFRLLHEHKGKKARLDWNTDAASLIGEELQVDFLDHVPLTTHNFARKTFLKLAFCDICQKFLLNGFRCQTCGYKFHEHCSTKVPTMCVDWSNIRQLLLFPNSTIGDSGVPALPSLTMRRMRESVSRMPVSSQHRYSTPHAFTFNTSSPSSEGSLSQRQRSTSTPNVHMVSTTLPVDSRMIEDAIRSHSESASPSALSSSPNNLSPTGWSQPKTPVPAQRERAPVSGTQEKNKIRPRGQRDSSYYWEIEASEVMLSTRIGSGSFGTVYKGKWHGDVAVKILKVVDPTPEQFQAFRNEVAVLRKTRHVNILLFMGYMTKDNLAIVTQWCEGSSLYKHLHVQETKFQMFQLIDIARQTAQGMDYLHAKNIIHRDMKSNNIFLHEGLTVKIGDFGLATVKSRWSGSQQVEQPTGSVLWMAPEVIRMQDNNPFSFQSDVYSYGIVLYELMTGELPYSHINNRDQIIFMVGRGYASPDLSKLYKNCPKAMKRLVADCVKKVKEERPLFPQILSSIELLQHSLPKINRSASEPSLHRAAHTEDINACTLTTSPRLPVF
Sequence of RAF kinases (Homo sapiens, UniProt P15056, V600E) (P15056 whole entry V600E): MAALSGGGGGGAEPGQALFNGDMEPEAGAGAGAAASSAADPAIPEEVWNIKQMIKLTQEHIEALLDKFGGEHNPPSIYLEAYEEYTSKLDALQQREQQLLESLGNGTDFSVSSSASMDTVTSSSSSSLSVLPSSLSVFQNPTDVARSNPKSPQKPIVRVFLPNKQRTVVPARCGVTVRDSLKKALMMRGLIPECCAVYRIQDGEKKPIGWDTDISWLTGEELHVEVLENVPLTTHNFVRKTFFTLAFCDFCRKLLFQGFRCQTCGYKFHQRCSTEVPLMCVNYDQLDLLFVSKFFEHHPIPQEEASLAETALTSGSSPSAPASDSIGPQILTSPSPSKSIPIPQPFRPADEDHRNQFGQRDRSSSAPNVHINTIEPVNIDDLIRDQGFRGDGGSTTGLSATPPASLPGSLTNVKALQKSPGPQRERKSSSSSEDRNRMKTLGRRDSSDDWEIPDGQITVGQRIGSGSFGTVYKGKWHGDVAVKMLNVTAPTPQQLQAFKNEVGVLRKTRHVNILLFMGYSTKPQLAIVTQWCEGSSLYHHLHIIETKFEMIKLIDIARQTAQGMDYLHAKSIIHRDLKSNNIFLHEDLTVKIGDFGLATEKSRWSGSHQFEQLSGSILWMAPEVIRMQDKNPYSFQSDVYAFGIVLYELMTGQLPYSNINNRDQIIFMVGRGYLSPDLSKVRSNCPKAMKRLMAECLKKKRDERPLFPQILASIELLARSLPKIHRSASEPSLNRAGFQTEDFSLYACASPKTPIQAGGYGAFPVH
Sequence of RAF kinases (Homo sapiens, UniProt P15056) (P15056 whole entry): as the sequence (P15056 whole entry V600E) above, with E600V counted along it

Kd [1]	Kd [2]	Kd [3]	IC50 [4]	EC50 [5]	Structure (SMILES)
< 250 nM	< 250 nM	< 250 nM	< 250 nM	500 to 1000 nM	COc1cc2ncnc(Oc3cccc(NC(=O)Nc4cc(C(C)(C)C(F)(F)F)no4)c3)c2cc1OC [Ex 267, 1-(3-(6,7-dimethoxyquinazolin-4-yloxy)phenyl)-3-(3-(1,1,1-trifluoro-2-methylpropan-2-yl)isoxazol-5-yl)urea]
< 250 nM	< 250 nM	< 250 nM	250 to 500 nM	250 to 500 nM	COc1cc2ncnc(Oc3cccc(NC(=O)Nc4cc(C(C)(CF)CF)on4)c3F)c2cc1OC [Ex 297, 1-(5-(1,3-difluoro-2-methylpropan-2-yl)isoxazol-3-yl)-3-(3-(6,7-dimethoxyquinazolin-4-yloxy)-2-fluorophenyl)urea]
< 250 nM	< 250 nM	< 250 nM	< 250 nM	< 250 nM	CCOc1cc2c(Oc3cccc(NC(=O)Nc4cc(C(C)(CF)CF)on4)c3)ncnc2cc1OC [Ex 393, 1-(5-(1,3-difluoro-2-methylpropan-2-yl)isoxazol-3-yl)-3-(3-(6-ethoxy-7-methoxyquinazolin-4-yloxy)phenyl)urea]
> 1000 nM	> 1000 nM	> 1000 nM	> 1000 nM	> 1000 nM	COCCOc1cc2ncnc(Sc3cccc(NC(=O)Nc4cc(C(F)(F)F)n(-c5ccccc5)n4)c3)c2cc1OC [Ex 244, 1-{3-[6-methoxy-7-(2-methoxyethoxy)quinazolin-4-ylthio]phenyl}-3-[1-phenyl-5-(trifluoromethyl)-1H-pyrazol-3-yl]urea]
< 250 nM	< 250 nM	< 250 nM	250 to 500 nM	250 to 500 nM	CCOc1cc2ncnc(Sc3cccc(NC(=O)Nc4cc(C(C)(CF)CF)on4)c3)c2cc1OC [Example 388, 1-(5-(1,3-difluoro-2-methylpropan-2-yl)isoxazol-3-yl)-3-(3-(7-ethoxy-6-methoxyquinazolin-4-ylthio)phenyl)urea]
< 250 nM	< 250 nM	< 250 nM	250 to 500 nM	500 to 1000 nM	COc1cc2c(Oc3cccc(NC(=O)Nc4cc(C(C)(C)F)no4)c3)ncnc2cc1O [Ex 257, 1-(3-(2-fluoropropan-2-yl)isoxazol-5-yl)-3-(3-(7-hydroxy-6-methoxyquinazolin-4-yloxy)phenyl)urea]
< 250 nM	< 250 nM	< 250 nM	< 250 nM	< 250 nM	COc1cc2c(Oc3cccc(NC(=O)Nc4cc(C(C)(C)C)on4)c3)ncnc2cc1OCCCN1CCS(=O)(=O)CC1 [Ex 256, 1-(5-tert-butyl-isoxazol-3-yl)-3-(3-{7-[3-(1,1-dioxo-thiomorpholin-4-yl)-propoxy]-6-methoxy-quinazolin-4-yloxy}-phenyl)-urea]
< 250 nM	< 250 nM	< 250 nM	500 to 1000 nM	> 1000 nM	COCCOc1cc2ncnc(Oc3cccc(NC(=O)Nc4cccc(C(C)(C)C#N)c4)c3)c2cc1OC [Ex 280, 1-(3-(2-cyanopropan-2-yl)phenyl)-3-(3-(6-methoxy-7-(2-methoxyethoxy)quinazolin-4-yloxy)phenyl)urea]
< 250 nM	< 250 nM	< 250 nM	250 to 500 nM	< 250 nM	COc1cc2ncnc(Sc3cccc(NC(=O)Nc4cc(C5(C(F)(F)F)CC5)on4)c3)c2cc1OC [Ex 378, 1-(3-(6,7-dimethoxyquinazolin-4-ylthio)phenyl)-3-(5-(1-(trifluoromethyl)cyclopropyl)isoxazol-3-yl)urea]
< 250 nM	< 250 nM	< 250 nM	< 250 nM	< 250 nM	CCOc1cc2c(Sc3cccc(NC(=O)Nc4cc(C(C)(CF)CF)on4)c3)ncnc2cc1OC [Ex 395, 1-(5-(1,3-difluoro-2-methylpropan-2-yl)isoxazol-3-yl)-3-(3-(6-ethoxy-7-methoxyquinazolin-4-ylthio)phenyl)urea]
< 250 nM	< 250 nM	< 250 nM	< 250 nM	< 250 nM	CCOc1cc2ncnc(Oc3cccc(NC(=O)Nc4cc(C(C)(CF)CF)on4)c3)c2cc1OC [Ex 386, 1-(5-(1,3-difluoro-2-methylpropan-2-yl)isoxazol-3-yl)-3-(3-(7-ethoxy-6-methoxyquinazolin-4-yloxy)phenyl)urea]
< 250 nM	< 250 nM	< 250 nM	250 to 500 nM	500 to 1000 nM	COc1cc2ncnc(Oc3cccc(NC(=O)Nc4cccc(C(C)(C)C#N)c4)c3)c2cc1OC [Ex 278, 1-(3-(2-cyanopropan-2-yl)phenyl)-3-(3-(6,7-dimethoxyquinazolin-4-yloxy)phenyl)urea]
< 250 nM	< 250 nM	< 250 nM	250 to 500 nM	> 1000 nM	COc1cc2ncnc(Sc3cccc(NC(=O)Nc4cccc(C(C)(C)C#N)c4)c3)c2cc1OC [Ex 279, 1-(3-(2-cyanopropan-2-yl)phenyl)-3-(3-(6,7-dimethoxyquinazolin-4-ylthio)phenyl)urea]
< 250 nM	< 250 nM	< 250 nM	500 to 1000 nM	> 1000 nM	COCCOc1cc2ncnc(Oc3cccc(NC(=O)Nc4cc(C(C)C)on4)c3)c2cc1OC [Ex 206, 1-(5-isopropylisoxazol-3-yl)-3-(3-(6-methoxy-7-(2-methoxyethoxy)quinazolin-4-yloxy)phenyl)urea]
> 1000 nM	> 1000 nM	> 1000 nM	250 to 500 nM	250 to 500 nM	COCCOc1cc2ncnc(Sc3cccc(NC(=O)Nc4cc(C(F)(F)F)nn4-c4ccc(C)cc4)c3)c2cc1OC [Ex 243, 1-{3-[6-methoxy-7-(2-methoxyethoxy)quinazolin-4-ylthio]phenyl}-3-[1-p-tolyl-3-(trifluoromethyl)-1H-pyrazol-5-yl]urea]
< 250 nM	< 250 nM	< 250 nM	< 250 nM	250 to 500 nM	COc1cc2ncnc(Oc3cccc(NC(=O)Nc4cc(C(C)(C)F)no4)c3)c2cc1O [Ex 258, 1-(3-(2-fluoropropan-2-yl)isoxazol-5-yl)-3-(3-(6-hydroxy-7-methoxyquinazolin-4-yloxy)phenyl)urea]
< 250 nM	< 250 nM	< 250 nM	< 250 nM	< 250 nM	COc1cc2ncnc(Oc3cc(NC(=O)Nc4cc(C(C)(C)F)no4)c(F)cc3F)c2cc1OC [Ex 269, 1-(5-(6,7-dimethoxyquinazolin-4-yloxy)-2,4-difluorophenyl)-3-(3-(2-fluoropropan-2-yl)isoxazol-5-yl)urea]
< 250 nM	< 250 nM	< 250 nM	< 250 nM	> 1000 nM	CCOc1cc2c(Sc3cccc(NC(=O)Nc4cc(C(C)(C)C(F)(F)F)on4)c3)ncnc2cc1OC [Ex 262, 1-(3-(6-ethoxy-7-methoxyquinazolin-4-ylthio)phenyl)-3-(5-(1,1,1-trifluoro-2-methylpropan-2-yl)isoxazol-3-yl)urea]
> 1000 nM	> 1000 nM	> 1000 nM	500 to 1000 nM	> 1000 nM	COc1cc2ncnc([S+]([O-])c3cccc(NC(=O)Nc4cc(C(C)(C)C)on4)c3)c2cc1OC (centres unmarked) [Ex 253, 1-(5-tert-butylisoxazol-3-yl)-3-(3-(6,7-dimethoxyquinazolin-4-ylsulfinyl)phenyl)urea]
< 250 nM	< 250 nM	< 250 nM	< 250 nM	250 to 500 nM	CCOc1cc2c(Sc3cccc(NC(=O)Nc4cc(C(C)(C)F)no4)c3)ncnc2cc1OC [Ex 394, 1-(3-(6-ethoxy-7-methoxyquinazolin-4-ylthio)phenyl)-3-(3-(2-fluoropropan-2-yl)isoxazol-5-yl)urea]
< 250 nM	< 250 nM	< 250 nM	250 to 500 nM	> 1000 nM	COCCOc1cc2ncnc(Sc3cccc(NC(=O)Nc4cc(C(C)C)on4)c3)c2cc1OC [Ex 232, 1-(5-isopropylisoxazol-3-yl)-3-(3-(6-methoxy-7-(2-methoxyethoxy)quinazolin-4-ylthio)phenyl)urea]
< 250 nM	< 250 nM	< 250 nM	250 to 500 nM	250 to 500 nM	CCOc1cc2ncnc(Oc3cccc(NC(=O)Nc4cc(C(C)(C)F)no4)c3)c2cc1OC [Ex 385, 1-(3-(7-ethoxy-6-methoxyquinazolin-4-yloxy)phenyl)-3-(3-(2-fluoropropan-2-yl)isoxazol-5-yl)urea]
< 250 nM	< 250 nM	< 250 nM	< 250 nM	< 250 nM	COc1cc2ncnc(Oc3cccc(NC(=O)Nc4cc(C(C)(C)C(F)(F)F)on4)c3)c2cc1O [Ex 264, 1-(3-(6-hydroxy-7-methoxyquinazolin-4-yloxy)phenyl)-3-(5-(1,1,1-trifluoro-2-methylpropan-2-yl)isoxazol-3-yl)urea]
< 250 nM	< 250 nM	< 250 nM	< 250 nM	250 to 500 nM	COc1cc2ncnc(Oc3cc(NC(=O)Nc4cc(C(C)(C)F)no4)ccc3F)c2cc1OC [Ex293, 1-(3-(6,7-dimethoxyquinazolin-4-yloxy)-4-fluorophenyl)-3-(3-(2-fluoropropan-2-yl)isoxazol-5-yl)urea]
< 250 nM	< 250 nM	< 250 nM	> 1000 nM	> 1000 nM	COCCOc1cc2ncnc(Oc3cccc(NC(=O)Nc4cc(C(F)(F)F)n(C)n4)c3)c2cc1OC [Ex 208, 1-{3-[6-methoxy-7-(2-methoxyethoxy)quinazolin-4-yloxy]phenyl}-3-[1-methyl-5-(trifluoromethyl)-1H-pyrazol-3-yl]urea]
